Results taken from publication PMC6199744, “Development of Chemical Proteomics for the Folateome and Analysis of the Kinetoplastid Folateome” (ACS Infectious Diseases, 2018).
Read-outs that look alike come from different tables or passages of the source.

How the values were obtained:
Type in all cases: binding
[1] = molecular target: T1, HeLa cell extract proteins (Homo sapiens, UniProt P18669)
T1 construct: endogenous in cells; host or cells: HeLa cell extract

[2] = molecular target: T2, HeLa cell extract proteins (Homo sapiens, UniProt Q9H974)
T2 construct: endogenous in cells; host or cells: HeLa cell extract
T2 sequence (Q9H974 whole entry): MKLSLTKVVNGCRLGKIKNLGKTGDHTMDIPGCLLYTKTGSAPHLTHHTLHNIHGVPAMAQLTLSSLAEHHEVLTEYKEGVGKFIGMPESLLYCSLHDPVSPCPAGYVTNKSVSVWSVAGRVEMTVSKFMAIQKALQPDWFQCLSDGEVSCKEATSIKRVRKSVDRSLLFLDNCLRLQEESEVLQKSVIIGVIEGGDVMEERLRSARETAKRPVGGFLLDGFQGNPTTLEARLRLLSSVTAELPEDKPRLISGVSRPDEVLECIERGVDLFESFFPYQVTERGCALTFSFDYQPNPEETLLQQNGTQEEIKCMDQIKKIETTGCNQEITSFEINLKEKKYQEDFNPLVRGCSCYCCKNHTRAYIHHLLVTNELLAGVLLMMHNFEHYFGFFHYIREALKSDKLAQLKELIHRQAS

[3] = molecular target: T3, HeLa cell extract proteins (Homo sapiens, UniProt P17980)
T3 construct: endogenous in cells; host or cells: HeLa cell extract
T3 sequence (P17980 whole entry): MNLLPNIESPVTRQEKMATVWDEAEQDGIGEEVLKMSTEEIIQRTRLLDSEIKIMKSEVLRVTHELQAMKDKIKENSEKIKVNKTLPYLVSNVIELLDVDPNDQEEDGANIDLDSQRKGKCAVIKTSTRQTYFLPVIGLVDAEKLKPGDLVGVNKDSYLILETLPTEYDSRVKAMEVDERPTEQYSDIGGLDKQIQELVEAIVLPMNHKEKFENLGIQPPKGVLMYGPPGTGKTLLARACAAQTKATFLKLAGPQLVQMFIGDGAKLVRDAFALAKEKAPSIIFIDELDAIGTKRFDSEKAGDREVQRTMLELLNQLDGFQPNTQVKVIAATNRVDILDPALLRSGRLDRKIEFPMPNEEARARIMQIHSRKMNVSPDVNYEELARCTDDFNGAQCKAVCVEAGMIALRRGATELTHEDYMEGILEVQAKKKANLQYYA

[4] = molecular target: T4, HeLa cell extract proteins (Homo sapiens, UniProt P23528)
T4 construct: endogenous in cells; host or cells: HeLa cell extract
T4 sequence (P23528 whole entry): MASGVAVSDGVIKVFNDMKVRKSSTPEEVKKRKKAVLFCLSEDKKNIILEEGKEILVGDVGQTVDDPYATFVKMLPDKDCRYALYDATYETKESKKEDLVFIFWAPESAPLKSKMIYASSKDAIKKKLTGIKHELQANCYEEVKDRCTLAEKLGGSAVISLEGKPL

[5] = molecular target: T5, HeLa cell extract proteins (Homo sapiens, UniProt O75352)
T5 construct: endogenous in cells; host or cells: HeLa cell extract
T5 sequence (O75352 1-247): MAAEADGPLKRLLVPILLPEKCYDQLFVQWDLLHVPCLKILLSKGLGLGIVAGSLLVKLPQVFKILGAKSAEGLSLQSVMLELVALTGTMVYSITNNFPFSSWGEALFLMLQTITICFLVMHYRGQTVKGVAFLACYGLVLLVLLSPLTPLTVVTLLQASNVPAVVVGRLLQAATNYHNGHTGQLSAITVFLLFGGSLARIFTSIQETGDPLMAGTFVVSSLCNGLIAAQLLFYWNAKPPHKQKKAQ

[6] = molecular target: T6, HeLa cell extract proteins (Homo sapiens, UniProt Q99683)
T6 construct: endogenous in cells; host or cells: HeLa cell extract
T6 sequence (Q99683 1-1374): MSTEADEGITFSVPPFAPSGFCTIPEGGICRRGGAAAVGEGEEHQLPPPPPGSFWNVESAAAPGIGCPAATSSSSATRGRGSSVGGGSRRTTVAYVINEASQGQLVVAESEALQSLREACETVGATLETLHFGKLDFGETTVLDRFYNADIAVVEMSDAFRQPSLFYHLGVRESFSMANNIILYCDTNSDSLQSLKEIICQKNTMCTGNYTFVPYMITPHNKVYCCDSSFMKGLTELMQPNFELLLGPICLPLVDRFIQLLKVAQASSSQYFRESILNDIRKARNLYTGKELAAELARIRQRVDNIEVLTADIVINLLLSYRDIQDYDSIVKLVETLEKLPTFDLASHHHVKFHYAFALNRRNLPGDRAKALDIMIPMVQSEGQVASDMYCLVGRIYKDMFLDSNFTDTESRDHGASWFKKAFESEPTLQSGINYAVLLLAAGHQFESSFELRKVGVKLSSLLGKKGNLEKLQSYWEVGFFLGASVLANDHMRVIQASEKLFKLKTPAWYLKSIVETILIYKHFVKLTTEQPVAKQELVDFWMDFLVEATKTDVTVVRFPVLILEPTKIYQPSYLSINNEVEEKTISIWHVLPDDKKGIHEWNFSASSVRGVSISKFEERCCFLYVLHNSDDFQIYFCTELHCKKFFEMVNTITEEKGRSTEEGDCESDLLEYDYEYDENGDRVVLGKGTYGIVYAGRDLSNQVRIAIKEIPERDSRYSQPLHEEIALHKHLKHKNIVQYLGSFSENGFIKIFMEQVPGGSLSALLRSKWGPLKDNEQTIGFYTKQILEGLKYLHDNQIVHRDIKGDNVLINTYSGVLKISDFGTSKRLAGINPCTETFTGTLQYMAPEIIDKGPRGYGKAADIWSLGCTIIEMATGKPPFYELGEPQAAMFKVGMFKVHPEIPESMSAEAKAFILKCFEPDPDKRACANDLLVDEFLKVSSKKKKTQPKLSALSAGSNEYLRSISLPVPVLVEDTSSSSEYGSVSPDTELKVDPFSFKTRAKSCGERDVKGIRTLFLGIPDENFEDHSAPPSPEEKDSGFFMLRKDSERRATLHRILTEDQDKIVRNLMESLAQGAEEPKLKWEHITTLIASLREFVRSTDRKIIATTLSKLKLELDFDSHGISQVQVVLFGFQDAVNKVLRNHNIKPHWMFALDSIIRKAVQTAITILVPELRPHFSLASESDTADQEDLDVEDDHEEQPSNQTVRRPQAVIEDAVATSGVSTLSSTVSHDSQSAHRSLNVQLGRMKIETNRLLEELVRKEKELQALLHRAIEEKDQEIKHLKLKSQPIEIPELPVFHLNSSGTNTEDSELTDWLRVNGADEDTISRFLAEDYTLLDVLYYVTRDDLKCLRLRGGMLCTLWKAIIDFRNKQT

[7] = molecular target: T7, HeLa cell extract proteins (Homo sapiens, UniProt Q96CW5)
T7 construct: endogenous in cells; host or cells: HeLa cell extract
T7 sequence (Q96CW5 whole entry): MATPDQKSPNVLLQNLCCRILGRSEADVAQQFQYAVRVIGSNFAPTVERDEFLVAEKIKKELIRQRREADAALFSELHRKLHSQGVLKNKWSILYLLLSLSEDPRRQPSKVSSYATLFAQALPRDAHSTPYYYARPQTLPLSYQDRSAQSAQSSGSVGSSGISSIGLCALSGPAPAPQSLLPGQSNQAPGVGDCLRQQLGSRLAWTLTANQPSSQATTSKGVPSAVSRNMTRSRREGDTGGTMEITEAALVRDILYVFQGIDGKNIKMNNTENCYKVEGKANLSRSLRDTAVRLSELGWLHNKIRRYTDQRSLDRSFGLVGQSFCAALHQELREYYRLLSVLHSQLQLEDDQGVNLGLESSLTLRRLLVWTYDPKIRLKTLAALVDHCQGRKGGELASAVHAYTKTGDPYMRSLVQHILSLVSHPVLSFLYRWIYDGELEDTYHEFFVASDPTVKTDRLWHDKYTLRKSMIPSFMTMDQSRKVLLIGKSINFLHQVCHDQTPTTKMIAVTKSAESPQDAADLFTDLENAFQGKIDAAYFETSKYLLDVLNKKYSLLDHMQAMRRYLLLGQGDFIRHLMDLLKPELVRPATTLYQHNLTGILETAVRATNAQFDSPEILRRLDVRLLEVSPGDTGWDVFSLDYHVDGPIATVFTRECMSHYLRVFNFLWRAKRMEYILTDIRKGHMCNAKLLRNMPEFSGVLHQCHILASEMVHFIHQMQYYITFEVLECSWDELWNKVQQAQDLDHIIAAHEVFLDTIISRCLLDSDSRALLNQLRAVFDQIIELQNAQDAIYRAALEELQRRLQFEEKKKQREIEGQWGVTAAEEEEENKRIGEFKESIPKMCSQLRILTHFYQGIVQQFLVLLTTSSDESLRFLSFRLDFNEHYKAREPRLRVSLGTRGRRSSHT

[8] = molecular target: T8, HeLa cell extract proteins (Homo sapiens, UniProt Q14258)
T8 construct: endogenous in cells; host or cells: HeLa cell extract
T8 sequence (Q14258 whole entry): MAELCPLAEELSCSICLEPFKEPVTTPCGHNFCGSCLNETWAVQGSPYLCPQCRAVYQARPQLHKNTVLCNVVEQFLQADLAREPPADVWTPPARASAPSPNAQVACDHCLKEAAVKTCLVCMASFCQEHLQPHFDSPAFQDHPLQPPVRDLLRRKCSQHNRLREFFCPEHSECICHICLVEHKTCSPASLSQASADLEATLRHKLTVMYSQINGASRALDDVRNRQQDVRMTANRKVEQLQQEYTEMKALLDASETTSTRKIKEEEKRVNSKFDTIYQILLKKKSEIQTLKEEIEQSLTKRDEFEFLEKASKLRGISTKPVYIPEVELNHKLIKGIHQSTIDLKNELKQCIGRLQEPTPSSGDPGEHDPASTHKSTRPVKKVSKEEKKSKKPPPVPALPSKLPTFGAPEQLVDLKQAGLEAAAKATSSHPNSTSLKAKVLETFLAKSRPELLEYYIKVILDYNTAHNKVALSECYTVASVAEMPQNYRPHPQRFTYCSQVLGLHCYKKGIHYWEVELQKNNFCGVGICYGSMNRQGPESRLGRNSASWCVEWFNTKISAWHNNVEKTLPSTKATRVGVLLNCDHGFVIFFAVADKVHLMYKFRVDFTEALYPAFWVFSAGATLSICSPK

[9] = molecular target: T9, HeLa cell extract proteins (Homo sapiens, UniProt Q04837)
T9 construct: endogenous in cells; host or cells: HeLa cell extract
T9 sequence (Q04837 17-148): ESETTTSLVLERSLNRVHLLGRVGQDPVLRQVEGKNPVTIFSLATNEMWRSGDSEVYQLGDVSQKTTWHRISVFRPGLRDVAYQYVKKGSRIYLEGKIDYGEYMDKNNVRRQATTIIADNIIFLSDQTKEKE

[10] = molecular target: T10, HeLa cell extract proteins (Homo sapiens, UniProt P04040)
T10 construct: endogenous in cells; host or cells: HeLa cell extract
T10 sequence (P04040 1-527): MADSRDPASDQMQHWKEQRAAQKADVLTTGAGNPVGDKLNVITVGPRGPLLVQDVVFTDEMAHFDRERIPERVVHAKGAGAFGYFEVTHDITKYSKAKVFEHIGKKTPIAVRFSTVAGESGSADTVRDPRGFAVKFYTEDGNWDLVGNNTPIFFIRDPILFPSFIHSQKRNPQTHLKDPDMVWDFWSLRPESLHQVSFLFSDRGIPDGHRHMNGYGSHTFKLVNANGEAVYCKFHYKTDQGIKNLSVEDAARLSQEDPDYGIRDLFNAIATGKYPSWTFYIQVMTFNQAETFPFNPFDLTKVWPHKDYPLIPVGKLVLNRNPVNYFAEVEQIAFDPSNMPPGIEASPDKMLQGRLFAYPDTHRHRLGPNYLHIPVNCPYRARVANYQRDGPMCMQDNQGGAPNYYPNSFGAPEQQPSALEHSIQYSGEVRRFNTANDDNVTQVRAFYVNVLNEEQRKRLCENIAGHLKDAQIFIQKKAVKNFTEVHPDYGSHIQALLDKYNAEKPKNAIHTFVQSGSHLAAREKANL

[11] = HeLa, protein MAP3K5 (MITOGEN-ACTIVATED PROTEIN KINASE KINASE KINASE 5)
[12] = HeLa, protein PGAM1 (SIMILAR TO PHOSPHOGLYCERATE MUTASE 1 ISOFORM 1.)
[13] = HeLa, protein CFL1 (COFILIN-1.)

T1 sequence (P18669 whole entry): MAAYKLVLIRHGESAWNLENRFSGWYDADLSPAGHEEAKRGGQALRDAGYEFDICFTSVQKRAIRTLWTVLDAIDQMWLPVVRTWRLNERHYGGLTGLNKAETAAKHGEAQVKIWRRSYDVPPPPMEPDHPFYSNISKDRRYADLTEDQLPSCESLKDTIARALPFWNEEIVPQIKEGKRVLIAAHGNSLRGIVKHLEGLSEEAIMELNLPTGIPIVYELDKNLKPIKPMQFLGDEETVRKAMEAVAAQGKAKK

Nc1nc2c(c(=O)[nH]1)N(C=O)C(CNc1ccc(C(=O)N[C@@H](CCC(=O)O)C(=O)O)cc1)CN2 (stereo partly shown) [LEU, leucovorin]
fold changes relative to vehicle control ([1]; HeLa, protein PGAM1): 1.05 | fold changes relative to vehicle control ([2]; protein QTRTD1, HeLa): 0.93 | fold changes relative to vehicle control ([3]; protein PSMC3, HeLa): 1.02 | fold changes relative to vehicle control ([4]; protein CFL1, HeLa): 0.76 | fold changes relative to vehicle control ([5]; HeLa, protein MPDU1): 0.93 | fold changes relative to vehicle control [6, 11]: 1.13 | fold changes relative to vehicle control ([7]; HeLa, protein TUBGCP3): 0.87 | fold changes relative to vehicle control ([8]; HeLa, captured protein TRIM25): 0.98 | fold changes relative to vehicle control ([9]; HeLa, protein SSBP1): 1.07 | fold changes relative to vehicle control ([10]; protein CAT, HeLa): 0.87

Nc1nc2[nH]cc(CCc3ccc(C(=O)N[C@@H](CCC(=O)O)C(=O)O)cc3)c2c(=O)[nH]1 [PTX, pemetrexed]
fold changes relative to vehicle control [1]: 1.24 | fold changes relative to vehicle control [2]: 0.86 | fold changes relative to vehicle control [3]: 1 | fold changes relative to vehicle control [4]: 0.79 | fold changes relative to vehicle control [5]: 1 | fold changes relative to vehicle control [6]: 1.18 | fold changes relative to vehicle control [7]: 1.06 | fold changes relative to vehicle control [8]: 0.87 | fold changes relative to vehicle control [9]: 1 | fold changes relative to vehicle control [10]: 0.88

CCCCCCOc1ccc(Cc2cnc(N)nc2N)cc1 [compound 1]
fold changes relative to vehicle control [1, 12]: 1.5 fold | fold changes relative to vehicle control ([2]; HeLa, protein QTRTD1): 0.46 | fold changes relative to vehicle control ([3]; protein PSMC3, HeLa): 1.24 | fold changes relative to vehicle control [4, 13]: 1.27 fold | fold changes relative to vehicle control ([5]; protein MPDU1, HeLa): 1.04 | fold changes relative to vehicle control ([6]; HeLa, protein MAP3K5): 1.03 | fold changes relative to vehicle control ([7]; captured protein TUBGCP3, HeLa): 0.94 | fold changes relative to vehicle control ([8]; HeLa, protein TRIM25): 0.9 | fold changes relative to vehicle control ([9]; HeLa, protein SSBP1): 1.05 | fold changes relative to vehicle control ([10]; captured protein CAT, HeLa): 0.77

CCCCCCOc1cccc(Cc2cnc(N)nc2N)c1 [compound 2]
fold changes relative to vehicle control [1, 12]: 2.64 fold | fold changes relative to vehicle control ([2]; HeLa, protein QTRTD1): 0.93 | fold changes relative to vehicle control ([3]; protein PSMC3, HeLa): 1.46 | fold changes relative to vehicle control [4, 13]: 2.02 fold | fold changes relative to vehicle control ([5]; protein MPDU1, HeLa): 0.89 | fold changes relative to vehicle control ([6]; HeLa, protein MAP3K5): 1.14 | fold changes relative to vehicle control ([7]; captured protein TUBGCP3, HeLa): 1.05 | fold changes relative to vehicle control ([8]; HeLa, protein TRIM25): 1.07 | fold changes relative to vehicle control ([9]; HeLa, protein SSBP1): 0.95 | fold changes relative to vehicle control ([10]; captured protein CAT, HeLa): 1.03

Nc1nc2cccc(-c3ccccc3)c2n1Cc1ccc(Cl)c(Cl)c1 [compound 3]
fold changes relative to vehicle control ([1]; HeLa, protein PGAM1 (SIMILAR TO PHOSPH[…] 1 ISOFORM 1.)): 0.9 fold | fold changes relative to vehicle control ([2]; HeLa, protein QTRTD1): 0.99 | fold changes relative to vehicle control ([3]; protein PSMC3, HeLa): 1.03 | fold changes relative to vehicle control [4, 13]: 0.82 fold | fold changes relative to vehicle control ([5]; protein MPDU1, HeLa): 1.05 | fold changes relative to vehicle control ([6]; HeLa, protein MAP3K5): 1.1 | fold changes relative to vehicle control ([7]; captured protein TUBGCP3, HeLa): 1.02 | fold changes relative to vehicle control ([8]; HeLa, protein TRIM25): 0.97 | fold changes relative to vehicle control ([9]; HeLa, protein SSBP1): 1 | fold changes relative to vehicle control ([10]; captured protein CAT, HeLa): 0.78

NCCOCCOCC(=O)Nc1nc2ncc(CNc3ccc(C(=O)NC(CCC(=O)O)C(=O)O)cc3)nc2c(=O)[nH]1 (stereo not shown) [compound 6]
fold changes relative to vehicle control ([1]; HeLa, protein PGAM1): 1.41 | fold changes relative to vehicle control ([2]; protein QTRTD1, HeLa): 0.33 | fold changes relative to vehicle control ([3]; protein PSMC3, HeLa): 1.17 | fold changes relative to vehicle control ([4]; protein CFL1, HeLa): 0.89 | fold changes relative to vehicle control ([5]; HeLa, protein MPDU1): 1.08 | fold changes relative to vehicle control [6, 11]: 1.12 | fold changes relative to vehicle control ([7]; HeLa, protein TUBGCP3): 1 | fold changes relative to vehicle control ([8]; HeLa, captured protein TRIM25): 0.98 | fold changes relative to vehicle control ([9]; HeLa, protein SSBP1): 0.96 | fold changes relative to vehicle control ([10]; protein CAT, HeLa): 0.94

NCCCNc1ccc(C(=O)NC(CCC(=O)O)C(=O)O)cc1 (stereo not shown) [compound 7]
fold changes relative to vehicle control ([1]; HeLa, protein PGAM1): 0.99 | fold changes relative to vehicle control ([2]; protein QTRTD1, HeLa): 0.99 | fold changes relative to vehicle control ([3]; protein PSMC3, HeLa): 1.03 | fold changes relative to vehicle control ([4]; protein CFL1, HeLa): 0.69 | fold changes relative to vehicle control ([5]; HeLa, protein MPDU1): 0.99 | fold changes relative to vehicle control [6, 11]: 1.09 | fold changes relative to vehicle control ([7]; HeLa, protein TUBGCP3): 1.01 | fold changes relative to vehicle control ([8]; HeLa, captured protein TRIM25): 0.94 | fold changes relative to vehicle control ([9]; HeLa, protein SSBP1): 0.95 | fold changes relative to vehicle control ([10]; protein CAT, HeLa): 1.39
